# Assay results taken from the NIST ThermoML archive (doi:10.1021/je600519p).
# Numbers after ± are expanded uncertainties.
# Tests used:
# [1] = 293.15 K; 101.33 kPa; Liquid
# [2] = refractive index (Na D-line) (dimensionless); details: 293.15 K; 101.33 kPa; Liquid
Compound,mass density [1] [kg/m3],refractive index [2]
CCOC(=O)OCC [diethyl carbonate],974.65 ± 0.29,1.3845 ± 0.0012
CCCCCCO [hexan-1-ol],818.84 ± 0.75,1.4178 ± 0.0013
CC(=O)c1ccccc1 [acetophenone],1027.93 ± 0.46,1.5336 ± 0.0013
